# Reference: patent US5620676A, “Biologically active ATP analogs” (priority 1995, dated 1997)
# Entries after “also recorded” stand apart in the source; their conditions may differ. Where two headings read alike, the source gives them in different places.
# Assays:
# [1] = target: T1, P2Y receptor (turkey erythrocyte membranes) (Meleagris gallopavo, UniProt P49652); assay: Stimulation of phospholipase C (inositol phosphate formation) in turkey erythrocyte membranes; type: biochemical; settings: for fold less potent than ATP, turkey erythrocyte: relative to ATP
# T1 construct: from tissue; host or cells: washed turkey erythrocytes, ghosts prepared by hypotonic lysis
# How it was run: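 Erythrocytes were labelled 18-24 h at 37 °C with [3H]myoinositol, and ghosts were made by hypotonic lysis. Ghosts (≈175 μg protein) were incubated 5 min at 30 °C in Hepes buffer pH 7.0 with 1 μM GTPγS and nucleotide analogs. Total [3H]inositol phosphates were purified by anion exchange; K0.5 averaged from 3-8 dose-response curves.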
# [2] = test system: P2Y receptor (aorta endothelium); assay: Relaxation of noradrenalin-contracted rabbit aorta; settings: for relaxation pD2, aorta: rabbit aorta, log molar units
# [3] = target: P2Y receptor (mesenteric artery); assay: Relaxation of rabbit mesenteric artery; settings: for relaxation pD2, mes. artery: log molar units
# [4] = target: T2, adenylyl cyclase linked P2Y receptor (C6 rat glioma cells) (Rattus norvegicus, UniProt Q9EPX4); assay: Inhibition of adenylyl cyclase in C6 rat glioma cells; type: cell-based; settings: versus phospholipase C linked receptor
# T2 construct: endogenous in cells; host or cells: C6 rat glioma cells
# Description: This example illustrates the inhibition of adenylyl cyclase activity in C6 rat glioma cells, as a function of the presence of certain ATP analogs in the medium in which the C6 cells were cultured.
# Cells were labelled by incubation for 2 hours in the presence of 1 to 2 mCi of tritiated adenine/ml in the medium. Cells were washed twice with HEPES (20 mM, pH 7.5)-buffered Eagle's medium and then preincubated for 10 minutes at 37° C. with fresh medium containing 200 μM 3-isobutyl-1-methylxanthine. Agonist incubations were initiated by the simultaneous addition of 10 μM isoproterenol and various concentrations of nucleotides. The reactions were stopped after 10 minutes of aspiration of the nucleotide-containing medium and addition of 1 ml of ice-cold 5% trichloroacetic acid.
# [5] = target: T3, P2Y receptor (taenia coli) (Cavia porcellus, UniProt P59902); settings: cited from earlier work
# T3 construct: Relaxant responses mediated via P2Y receptors were examined in guinea pig taenia coli; from tissue; host or cells: guinea pig taenia coli (carbachol-contracted)
# [6] = target: T4, P2X receptor (saphenous artery) (Oryctolagus cuniculus, UniProt G1U3D6); assay: Contraction of rabbit saphenous artery; settings: for activity/potency in words, saphenous artery: rabbit saphenous artery
# T4 construct: and rabbit saphenous artery; from tissue; host or cells: rabbit saphenous artery
# T4 sequence (G1U3D6 1-399): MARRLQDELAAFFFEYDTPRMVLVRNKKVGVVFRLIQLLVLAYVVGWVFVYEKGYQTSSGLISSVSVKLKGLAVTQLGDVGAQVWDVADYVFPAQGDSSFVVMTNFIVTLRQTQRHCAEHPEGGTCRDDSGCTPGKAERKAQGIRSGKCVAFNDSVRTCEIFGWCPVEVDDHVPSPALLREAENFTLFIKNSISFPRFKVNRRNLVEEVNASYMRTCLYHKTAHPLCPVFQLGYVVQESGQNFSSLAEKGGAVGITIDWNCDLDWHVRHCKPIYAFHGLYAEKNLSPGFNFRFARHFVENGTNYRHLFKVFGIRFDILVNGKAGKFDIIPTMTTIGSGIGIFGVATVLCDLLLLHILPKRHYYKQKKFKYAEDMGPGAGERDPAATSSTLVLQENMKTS
# How it was run: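 Contraction of isolated rabbit saphenous artery, standard organ-bath methods; responses at 10 μM expressed as percentage of contraction produced by 1 μM α,MeATP. Highest analogue concentrations tested were 3-30 […].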
# [7] = target: T5, P2X receptor (vas deferens) (Cavia porcellus, UniProt A0A286XVA9); assay: Contraction of guinea pig isolated vas deferens
# T5 sequence (A0A286XVA9 1-399): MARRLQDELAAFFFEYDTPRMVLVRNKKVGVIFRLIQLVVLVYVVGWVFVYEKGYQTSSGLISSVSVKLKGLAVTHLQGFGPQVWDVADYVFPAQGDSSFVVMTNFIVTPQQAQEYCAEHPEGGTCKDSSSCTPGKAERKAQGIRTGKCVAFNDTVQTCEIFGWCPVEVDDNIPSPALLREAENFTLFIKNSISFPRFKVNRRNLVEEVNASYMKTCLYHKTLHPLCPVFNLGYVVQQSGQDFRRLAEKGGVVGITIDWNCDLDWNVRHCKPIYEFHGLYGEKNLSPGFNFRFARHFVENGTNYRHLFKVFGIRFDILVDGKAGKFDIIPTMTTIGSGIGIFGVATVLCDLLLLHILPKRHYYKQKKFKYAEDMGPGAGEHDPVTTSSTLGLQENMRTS
# Description: In FIG. 14, the x-axis is also marked in units of the negative log of the molar concentration of applied putative P2Y receptor agonists and the y-axis is marked in units of the percentage relaxation of the 1 μM noradrenalin-induced contraction of rabbit aorta endothelium. In FIGS. 15-16, the x-axis is marked in units of the negative log of the molar concentration of applied putative p^2X receptor agonists and the y-axis is marked in units of the percentage contraction relative to a standard dose of KCl (i.e., 60 mM), as assessed in guinea pig isolated urinary bladder detrussor muscle (FIG. 15) and guinea pig isolated vas deferens (FIG. 16).
# [8] = target: T6, P2X receptor (urinary bladder) (Cavia porcellus, UniProt A0A286XVA9); assay: Contraction of guinea pig isolated urinary bladder detrussor muscle; settings: guinea pig urinary bladder
# T6 construct: guinea pig isolated urinary bladder detrussor muscle; from tissue; host or cells: guinea pig isolated urinary bladder detrusor muscle
# [9] = test system: P2X and P2Y receptors; assay: Overall activity in the seven P2X and P2Y preparations
# [10] = test system: P2X receptors; assay: Overall activity in P2X receptor systems
# [11] = test system: P2Y receptors; assay: Overall activity in P2Y receptor systems
# Description: Phospholipase C activity: Stimulation of inositol phosphate formation by compounds of the present invention was measured in turkey erythrocyte membranes as described by Harden et al., supra and Boyer et al., supra. The K0.5 values were averaged from 3-8 independently determined dose-response curves for each compound. Briefly, one ml of washed turkey erythrocytes was incubated in inositol-free medium (DMEM; Gibco) with 0.5-1 mCi of 2-[^3 H]myoinositol (20 Ci/mmol; American Radiolabeled Chemicals Inc., St. Louis, Mo.)for 18-24 h in a humidified atmosphere of 95% air 5% CO2 at 37° C. Erythrocyte ghosts were prepared by rapid lysis in hypotonic buffer (5 mM sodium phosphate, pH 7.4, 5 mM MgCl2, 1 mM EGTA) as described by Boyer et al., supra. Phospholipase C activity was measured in 25 μl of [^3 H]inositol-labeled ghosts (≈175 μg of protein, 200-500,000 cpm/assay) in a medium containing 424 μM CaC12, 0.91 mM MgSO4, 2 mM EGTA, 115 mM KCl, 5 mM KH2 PO4, and 10 mM Hepes, pH 7.0. Assay (100 μl or 200 μl final volume) contained 1 μM GTPγS and the indicated concentrations of nucleotide analogs. Ghosts were incubated at 30° C. for 5 min, and total [^3 H]inositol phosphates were quantitated after purification by anion exchange chromatography according to Harden et al. (supra) and Boyer et al. (supra).
# Muscular relaxation/contraction: Relaxant responses mediated via P2Y receptors were examined in guinea pig taenia coli, rabbit aorta, and rabbit mesenteric artery, as described by Hoyle et al. (Br. J. Pharmacol., 107, 367-374 (1992a)), Burnstock et al., (Br. J. Pharmacol., 90, 383-391 (1987a)), and Rubino et al., (Eur. J. Pharmacol., 212, 237-240 (1992)). Contractile responses mediated via P2X receptors were examined in the guinea pig urinary bladder and vas deferens, and rabbit saphenous artery, also using standard methods (see Hoyle et al., supra., 1992; Hoyle et al., Br. J. Pharmacol., 99, 617-621 (1990); and Burnstock et al., Br. J. Pharmacol., 90, 111-120 (1987b)).
# [12] = target: T3, P2Y receptor (taenia coli); assay: Relaxation of carbachol-contracted guinea pig taenia coli
# How it was run: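 Guinea pig taenia coli precontracted with 50 nM carbachol; relaxation to applied P2Y agonists expressed as percentage relaxation against negative log molar agonist concentration.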
# [13] = target: T5, P2X receptor (vas deferens); settings: guinea pig vas deferens; log molar units; footnote e: literature data; cited from earlier work
# [14] = turkey erythrocyte membranes, mean ± S.E.M. for at least 2 determinations, read-out: phosphatidyl inositol metabolism (K0.5, nM) erythrocyte
# [15] = listed as 3'-benzylamino-3'-deoxy-ATP
# [16] = listed as 3'-benzylamino-3'-deoxyATP
# [17] = listed as 3'-Benzylamino-3'-deoxy-ATP
# T3 sequence (P59902 whole entry): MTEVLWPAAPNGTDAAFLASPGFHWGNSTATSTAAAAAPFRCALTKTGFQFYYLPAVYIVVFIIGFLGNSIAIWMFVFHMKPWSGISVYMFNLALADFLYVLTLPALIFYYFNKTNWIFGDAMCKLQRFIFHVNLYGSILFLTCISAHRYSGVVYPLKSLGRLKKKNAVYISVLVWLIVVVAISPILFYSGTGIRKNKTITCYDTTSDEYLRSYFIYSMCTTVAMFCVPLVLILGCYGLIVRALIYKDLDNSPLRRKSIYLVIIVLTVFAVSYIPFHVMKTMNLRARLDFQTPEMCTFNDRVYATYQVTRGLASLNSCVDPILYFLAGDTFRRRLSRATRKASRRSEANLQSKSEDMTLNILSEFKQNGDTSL
# T1 sequence (P49652 whole entry): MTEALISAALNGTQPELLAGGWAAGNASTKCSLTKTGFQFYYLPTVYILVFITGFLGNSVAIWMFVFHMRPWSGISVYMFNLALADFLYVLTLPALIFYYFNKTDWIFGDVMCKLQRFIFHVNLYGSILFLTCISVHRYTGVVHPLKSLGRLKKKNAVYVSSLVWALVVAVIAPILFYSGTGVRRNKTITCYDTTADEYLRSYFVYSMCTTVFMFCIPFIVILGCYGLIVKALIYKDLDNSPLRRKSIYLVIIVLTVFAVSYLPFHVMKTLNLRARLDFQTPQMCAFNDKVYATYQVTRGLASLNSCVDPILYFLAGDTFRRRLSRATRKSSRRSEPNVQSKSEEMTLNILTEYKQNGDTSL
# T2 sequence (Q9EPX4 whole entry): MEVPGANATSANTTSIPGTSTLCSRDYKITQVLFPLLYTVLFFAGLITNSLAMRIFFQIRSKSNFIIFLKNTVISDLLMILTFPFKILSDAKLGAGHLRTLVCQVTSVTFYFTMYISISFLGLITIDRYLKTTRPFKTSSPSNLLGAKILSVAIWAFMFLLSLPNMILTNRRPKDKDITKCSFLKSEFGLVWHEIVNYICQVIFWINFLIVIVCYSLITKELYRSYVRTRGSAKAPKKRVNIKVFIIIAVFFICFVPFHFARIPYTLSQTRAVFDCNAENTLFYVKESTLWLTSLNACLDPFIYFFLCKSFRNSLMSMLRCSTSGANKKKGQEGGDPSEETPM
compound,measurement,setting,value
"Nc1nc(Cl)nc2c1ncn2[C@@H]1O[C@H](COP(=O)(O)OP(=O)(O)OP(=O)(O)O)[C@@H](O)[C@H]1O [2-Cl-ATP, 2-chloro-ATP, reference compound]",EC50,[1]; [14],72 ± 19 nM
same,EC50,"[1]; turkey erythrocyte membranes, read-out: K0.5",72 nM
same,"relaxation pD2, aorta",[2],5.8
same,"relaxation pD2, mes. artery",[3],6.2
same,"selectivity for the adenylyl cyclase linked receptor, in words",[4],not observed
same,"relaxation pD2, taenia coli","[5]; guinea pig taenia coli, log molar units, footnote e: literature data",7.2
"Nc1ncnc2c1ncn2[C@@H]1O[C@H](COP(=O)(O)OP(=O)(O)OP(=O)(O)O)[C@@H](NCc2ccccc2)[C@H]1O [3'-Benzylamino-3'-deoxyATP, 3'-N-Benzylamino-3'-deoxyadenosine 5'-triphosphate]",EC50,[1]; [14],> 100000 nM
same,"activity/potency in words, saphenous artery",[6],inactive
same,"activity/potency in words, saphenous artery",[6]; [15],at best weak agonists in the saphenous artery
same,"activity/potency in words, saphenous artery",[6]; [16],not rabbit saphenous artery P2X receptors
same,"activity/potency in words, vas deferens",[7],the most potent agonist at vas deferens P2X receptors
same,"activity/potency in words, vas deferens",[7]; [17],substantially more potent than ATP
same,"activity/potency in words, vas deferens",[7]; [15],potent agonists in the vas deferens and urinary bladder
same,"activity/potency in words, vas deferens",[7]; [16],high potency
same,"activity/potency in words, bladder",[8],highly potent at urinary bladder P2X receptors
same,"activity/potency in words, bladder",[8]; [17],substantially more potent than ATP
same,"activity/potency in words, bladder",[8]; [15],potent agonists in the vas deferens and urinary bladder
same,"activity/potency in words, bladder",[8]; [16],high potency
same,"overall activity in words, all preparations",[9],active only in the vas deferens and urinary bladder
same,"overall activity in words, P2X systems",[10],specificity for P2X receptors
same,"overall activity in words, P2Y systems",[11],either inactive or only a weak agonist in P2Y -systems
same,"overall activity in words, P2Y systems",[11]; listed as 3'-benzylamino-3'deoxyATP,inactive in the P2Y receptor systems
"Nc1ncnc2c1ncn2[C@@H]1O[C@H](COP(=O)(O)OP(=O)(O)OP(=O)(O)O)[C@@H](O)[C@H]1O [ATP, adenosine-5'-triphosphate, reference compound]",EC50,"[1]; K0.5, turkey erythrocyte membranes, read from graph",10000 nM
same,EC50,[1]; [14],2800 ± 700 nM
same,EC50,[12],0.631 µM
same,"relaxation pD2, taenia coli","[12]; guinea pig taenia coli, log molar units",6.2 ± 0.08
same,"relaxation pD2, aorta",[2],4.5
same,"relaxation pD2, mes. artery",[3],6.0
same,EC50,[6],1780 µM
same,activation at 10 µM,"[6]; read-out: response at 10 μM relative to the contraction produced by 1 μM α,MeATP, saph. artery",5%
same,"contraction pD2, vas",[13],3.5
"Nc1ncnc2c1ncn2[C@@H]1O[C@H](COP(O)(=S)OP(=O)(O)OP(=O)(O)O)[C@@H](O)[C@H]1O (stereo partly drawn) [ATP-α-S (S-isomer), reference compound]",EC50,"[1]; phosphatidyl inositol metabolism (K0.5, nM) erythrocyte, turkey erythrocyte membranes, mean ± S.E.M. for at least 2 determinations",8930 ± 4440 nM
same,"fold less potent than ATP, turkey erythrocyte",[1],2 -fold
same,"relaxation pD2, mes. artery",[3],6.6
same,"fold more potent than ATP, taenia coli","[5]; relative to ATP, see Burnstock et al. 1984",approximately 10 -fold
"CNc1ncnc2c1ncn2[C@@H]1O[C@H](COP(=O)(O)OP(=O)(O)OP(=O)(O)O)[C@@H](O)[C@H]1O [N^6 -Me-ATP, N^6 -Methyl-adenosine 5'-triphosphate]","fold less potent than ATP, turkey erythrocyte",[1],7 -fold
same,EC50,[1]; [14],19000 nM
same,EC50,[12],1.58 µM
same,"activity/potency in words, taenia coli","[12]; guinea pig taenia coli, listed as N^6 -methyl ATP",equipotent with ATP in the taenia coli
same,"activity/potency in words, taenia coli","[12]; guinea pig taenia coli, listed as N^6 -methylATP",selectivity; also recorded: at an equal level as if activated by ATP itself
same,"activity/potency/selectivity in words, aorta",[2]; rabbit aorta endothelial P2Y receptor,significantly less activated
same,"activity/potency in words, mesenteric artery",[3],not activated at concentrations of the N^6 -methyl derivative as high as 10^-5 M
same,"selectivity for the adenylyl cyclase linked receptor, in words",[4],slightly selective of the phospholipase C-linked receptor
same,"overall activity in words, P2X systems",[10]; listed as N^6 -methyl ATP,inactive in P2X preparations
same,"overall activity in words, P2X systems",[10]; listed as N^6 -methyl-ATP,inactive in the P2X receptor systems
same,"overall activity in words, P2Y systems",[11],inactive in vascular smooth muscle
